Reference: patent publication US9458137B2, “Substituted indol-5-ol derivatives and their therapeutical applications” (NantBioScience, Inc., priority 2012, dated 2016)

Legend:
Experiment in all cases: Kinase panel activity
Assay type in all cases: biochemical
Conditions in all cases: 0.1 μM, ATP Km
B1k(m) = B1k(m) (Mus musculus, UniProt P16277)
Description: (§1) The effect of NTW-3475 on kinase activity was tested for a wide range of kinases and is shown in Table 2: Summary Sheet, Activity % ATP Concentration: Km

F1t1(h) = F1t1(h) (Homo sapiens, UniProt P17948)
Description: as §1

CK1γ2(h) = CK1γ2(h) (Homo sapiens, UniProt P78368)
Description: as §1

MKK6(h) = biological target: T1, MKK6(h) (Homo sapiens, UniProt P52564)
T1 construct: purchased Millipore (KinaseProfiler service)
Description: as §1

GSK3α(h) = GSK3α(h) (Homo sapiens, UniProt P49840)
Description: as §1

Met(Y1248D)(h) = biological target: T2, Met(Y1248D)(h) (Homo sapiens, UniProt P08581, Y1230D)
T2 construct: purchased Millipore (KinaseProfiler service)
Description: as §1

PAK5(h) = PAK5(h) (Homo sapiens, UniProt Q9P286)
Description: as §1

CK2(h) = CK2(h) (Homo sapiens, UniProt P68400)
Description: as §1

PhKγ2(h) = PhKγ2(h) (Homo sapiens, UniProt P15735)
Description: as §1

CHK2(II57T)(h) = CHK2(II57T)(h) (Homo sapiens, UniProt O96017, I157T)
Description: as §1

MST3(h) = MST3(h) (Homo sapiens, UniProt Q9Y6E0)
Description: as §1

Yes(h) = Yes(h) (Homo sapiens, UniProt P07947)
Chain of Yes(h) (P07947 whole entry): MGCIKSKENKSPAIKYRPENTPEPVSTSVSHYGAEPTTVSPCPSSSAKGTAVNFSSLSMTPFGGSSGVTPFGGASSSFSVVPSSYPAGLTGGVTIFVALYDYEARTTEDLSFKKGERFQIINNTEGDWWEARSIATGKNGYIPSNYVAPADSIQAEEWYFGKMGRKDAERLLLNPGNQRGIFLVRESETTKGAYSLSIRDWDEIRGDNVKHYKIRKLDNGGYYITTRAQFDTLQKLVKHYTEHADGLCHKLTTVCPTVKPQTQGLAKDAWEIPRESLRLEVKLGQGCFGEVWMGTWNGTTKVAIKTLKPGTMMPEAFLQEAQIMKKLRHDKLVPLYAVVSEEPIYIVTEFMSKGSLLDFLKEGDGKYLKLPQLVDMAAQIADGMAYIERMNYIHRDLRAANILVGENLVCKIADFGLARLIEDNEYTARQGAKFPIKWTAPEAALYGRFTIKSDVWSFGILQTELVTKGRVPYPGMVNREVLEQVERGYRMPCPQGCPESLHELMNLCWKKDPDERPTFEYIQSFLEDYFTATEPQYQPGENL
Description: as §1

CK1δ(h) = CK1δ(h) (Homo sapiens, UniProt P48730)
Chain of CK1δ(h) (P48730 whole entry): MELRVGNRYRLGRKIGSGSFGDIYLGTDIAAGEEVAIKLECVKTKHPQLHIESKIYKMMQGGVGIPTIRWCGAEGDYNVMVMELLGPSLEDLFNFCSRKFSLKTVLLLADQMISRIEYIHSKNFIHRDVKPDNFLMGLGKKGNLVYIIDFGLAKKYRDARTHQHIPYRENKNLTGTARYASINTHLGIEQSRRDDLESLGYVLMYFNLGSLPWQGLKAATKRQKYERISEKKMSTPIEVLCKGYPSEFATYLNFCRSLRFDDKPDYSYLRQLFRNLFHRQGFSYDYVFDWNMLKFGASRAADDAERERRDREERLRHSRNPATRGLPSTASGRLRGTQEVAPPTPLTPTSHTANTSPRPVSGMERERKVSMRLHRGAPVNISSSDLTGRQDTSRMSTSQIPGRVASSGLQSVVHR
Description: as §1

BRK(h) = BRK(h) (Homo sapiens, UniProt Q13882)
Description: as §1

TAO2(h) = biological target: T3, TAO2(h) (Homo sapiens, UniProt Q9UL54)
T3 construct: purchased Millipore (KinaseProfiler service)
Description: as §1

TSSK2(h) = biological target: T4, TSSK2(h) (Homo sapiens, UniProt Q96PF2)
T4 construct: purchased Millipore (KinaseProfiler service)
T4 sequence (Q96PF2 whole entry): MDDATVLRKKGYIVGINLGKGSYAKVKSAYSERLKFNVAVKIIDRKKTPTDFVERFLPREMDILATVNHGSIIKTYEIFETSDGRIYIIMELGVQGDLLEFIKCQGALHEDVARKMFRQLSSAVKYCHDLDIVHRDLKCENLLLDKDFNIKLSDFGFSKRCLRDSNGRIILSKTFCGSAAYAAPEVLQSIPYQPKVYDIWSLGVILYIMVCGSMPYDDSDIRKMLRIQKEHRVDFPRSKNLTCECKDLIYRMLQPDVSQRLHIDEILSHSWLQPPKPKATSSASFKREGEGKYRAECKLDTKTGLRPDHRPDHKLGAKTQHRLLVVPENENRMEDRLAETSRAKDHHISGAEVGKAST
Description: as §1

PKD2(h) = PKD2(h) (Homo sapiens, UniProt Q9BZL6)
Description: as §1

Lyn(m) = Lyn(m) (Mus musculus, UniProt P25911)
Description: as §1

CDK1/cyclinB(h) = CDK1/cyclinB(h) (Homo sapiens, UniProt P06493)
Description: as §1

Hck(h) activated = Hck(h) activated (Homo sapiens, UniProt P08631)
Description: as §1

PAR-1Bα(h) = PAR-1Bα(h) (Homo sapiens, UniProt Q7KZI7)
Description: as §1

FGFR3(h) = FGFR3(h) (Homo sapiens, UniProt P22607)
Chain of FGFR3(h) (P22607 23-806): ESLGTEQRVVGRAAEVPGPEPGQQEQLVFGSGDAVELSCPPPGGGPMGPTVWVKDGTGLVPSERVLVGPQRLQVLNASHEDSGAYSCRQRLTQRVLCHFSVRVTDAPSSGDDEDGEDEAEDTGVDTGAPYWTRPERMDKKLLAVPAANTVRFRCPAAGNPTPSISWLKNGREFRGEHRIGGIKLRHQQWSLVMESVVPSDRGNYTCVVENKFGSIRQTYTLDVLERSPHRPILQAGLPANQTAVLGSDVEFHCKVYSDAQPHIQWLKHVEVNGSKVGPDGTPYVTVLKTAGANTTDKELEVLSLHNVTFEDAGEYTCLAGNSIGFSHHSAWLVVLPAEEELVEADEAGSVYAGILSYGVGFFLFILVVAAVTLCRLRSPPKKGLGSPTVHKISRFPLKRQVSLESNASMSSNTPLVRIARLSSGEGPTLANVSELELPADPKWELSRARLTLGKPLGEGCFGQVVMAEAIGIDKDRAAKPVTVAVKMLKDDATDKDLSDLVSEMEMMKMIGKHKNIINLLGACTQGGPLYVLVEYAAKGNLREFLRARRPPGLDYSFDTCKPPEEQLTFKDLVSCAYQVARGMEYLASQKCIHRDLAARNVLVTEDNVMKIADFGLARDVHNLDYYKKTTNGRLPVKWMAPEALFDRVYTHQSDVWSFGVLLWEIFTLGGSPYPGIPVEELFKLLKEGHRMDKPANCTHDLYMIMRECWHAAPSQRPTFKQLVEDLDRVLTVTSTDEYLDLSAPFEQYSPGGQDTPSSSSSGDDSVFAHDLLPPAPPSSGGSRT
Description: as §1

Met(D1246N)(h) = biological target: T5, Met(D1246N)(h) (Homo sapiens, UniProt P08581, D1228N)
T5 construct: purchased Millipore (KinaseProfiler service)
Description: as §1

PKCβ1(h) = PKCβ1(h) (Homo sapiens, UniProt P05771)
Description: as §1

STK33(h) = biological target: T6, STK33(h) (Homo sapiens, UniProt Q9BYT3)
T6 construct: purchased Millipore (KinaseProfiler service)
Description: as §1

TBK1(h) = biological target: T7, TBK1(h) (Homo sapiens, UniProt Q9UHD2)
T7 construct: purchased Millipore (KinaseProfiler service)
T7 sequence (Q9UHD2 whole entry): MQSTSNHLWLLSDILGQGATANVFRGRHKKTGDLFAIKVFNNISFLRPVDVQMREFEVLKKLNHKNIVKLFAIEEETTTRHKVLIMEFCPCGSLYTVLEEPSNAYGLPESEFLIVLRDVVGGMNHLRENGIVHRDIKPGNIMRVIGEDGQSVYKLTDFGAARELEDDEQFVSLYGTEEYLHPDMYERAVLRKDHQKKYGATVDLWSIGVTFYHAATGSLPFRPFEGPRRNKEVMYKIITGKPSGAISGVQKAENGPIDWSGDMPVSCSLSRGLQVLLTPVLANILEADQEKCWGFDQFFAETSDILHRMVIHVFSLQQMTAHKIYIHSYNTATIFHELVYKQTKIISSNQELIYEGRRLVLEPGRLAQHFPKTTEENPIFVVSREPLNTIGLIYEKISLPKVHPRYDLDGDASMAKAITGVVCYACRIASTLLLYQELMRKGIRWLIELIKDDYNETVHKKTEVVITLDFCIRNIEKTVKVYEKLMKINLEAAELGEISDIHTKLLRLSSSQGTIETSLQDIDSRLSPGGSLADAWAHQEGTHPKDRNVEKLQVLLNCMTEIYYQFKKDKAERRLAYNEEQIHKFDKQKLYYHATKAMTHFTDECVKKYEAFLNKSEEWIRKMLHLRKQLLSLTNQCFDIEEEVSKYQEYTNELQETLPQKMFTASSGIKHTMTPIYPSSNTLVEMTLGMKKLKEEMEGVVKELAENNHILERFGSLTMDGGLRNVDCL
Description: as §1

NEK11(h) = NEK11(h) (Homo sapiens, UniProt Q8NG66)
Description: as §1

Arg(m) = Arg(m) (Mus musculus, UniProt Q4JIM5)
Chain of Arg(m) (Q4JIM5 whole entry): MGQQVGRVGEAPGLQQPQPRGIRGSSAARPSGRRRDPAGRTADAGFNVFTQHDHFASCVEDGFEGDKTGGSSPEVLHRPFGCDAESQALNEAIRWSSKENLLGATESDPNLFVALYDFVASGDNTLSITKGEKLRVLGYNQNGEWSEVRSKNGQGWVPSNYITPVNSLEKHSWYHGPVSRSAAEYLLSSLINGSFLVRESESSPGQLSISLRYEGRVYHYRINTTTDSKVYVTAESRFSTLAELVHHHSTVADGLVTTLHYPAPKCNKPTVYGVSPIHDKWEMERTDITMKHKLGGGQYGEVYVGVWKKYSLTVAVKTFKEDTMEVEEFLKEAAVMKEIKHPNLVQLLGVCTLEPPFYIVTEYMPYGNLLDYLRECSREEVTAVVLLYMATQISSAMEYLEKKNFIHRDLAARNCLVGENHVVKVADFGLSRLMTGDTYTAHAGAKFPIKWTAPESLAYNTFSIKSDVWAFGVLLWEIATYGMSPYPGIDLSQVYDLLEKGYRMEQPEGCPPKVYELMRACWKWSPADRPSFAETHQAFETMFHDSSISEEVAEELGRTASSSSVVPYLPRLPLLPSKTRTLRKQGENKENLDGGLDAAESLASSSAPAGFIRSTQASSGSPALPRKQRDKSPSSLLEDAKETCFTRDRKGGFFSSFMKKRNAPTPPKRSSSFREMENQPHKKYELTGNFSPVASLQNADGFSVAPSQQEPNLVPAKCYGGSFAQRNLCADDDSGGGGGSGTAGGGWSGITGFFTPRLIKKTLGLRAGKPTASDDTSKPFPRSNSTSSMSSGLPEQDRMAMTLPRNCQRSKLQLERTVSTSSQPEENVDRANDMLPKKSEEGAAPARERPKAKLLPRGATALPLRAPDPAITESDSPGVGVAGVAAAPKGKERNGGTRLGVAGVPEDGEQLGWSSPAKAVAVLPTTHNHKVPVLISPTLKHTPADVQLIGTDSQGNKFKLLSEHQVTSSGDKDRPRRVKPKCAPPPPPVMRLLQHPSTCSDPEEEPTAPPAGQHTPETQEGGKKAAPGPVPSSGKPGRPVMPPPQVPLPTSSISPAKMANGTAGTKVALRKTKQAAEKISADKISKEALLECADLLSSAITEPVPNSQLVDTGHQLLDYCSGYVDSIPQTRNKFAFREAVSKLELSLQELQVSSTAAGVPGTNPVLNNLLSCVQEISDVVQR
Description: as §1

PDGFRβ(h) = PDGFRβ(h) (Homo sapiens, UniProt P09619)
Description: as §1

GRK7(h) = GRK7(h) (Homo sapiens, UniProt Q8WTQ7)
Description: as §1

P1k1(h) = P1k1(h) (Homo sapiens, UniProt P53350)
Description: as §1

EphB2(h) = biological target: T8, EphB2(h) (Homo sapiens, UniProt P29323)
T8 construct: purchased Millipore (KinaseProfiler service)
Description: as §1

MELK(h) = biological target: T9, MELK(h) (Homo sapiens, UniProt Q14680)
T9 construct: purchased Millipore (KinaseProfiler service)
Description: as §1

MAPKAP-K2(h) = biological target: T10, MAPKAP-K2(h) (Homo sapiens, UniProt P49137)
T10 construct: purchased Millipore (KinaseProfiler service)
Description: as §1

ARK5(h) = ARK5(h) (Homo sapiens, UniProt O60285)
Description: as §1

IKKβ(h) = IKKβ(h) (Homo sapiens, UniProt O14920)
Chain of IKKβ(h) (O14920 whole entry): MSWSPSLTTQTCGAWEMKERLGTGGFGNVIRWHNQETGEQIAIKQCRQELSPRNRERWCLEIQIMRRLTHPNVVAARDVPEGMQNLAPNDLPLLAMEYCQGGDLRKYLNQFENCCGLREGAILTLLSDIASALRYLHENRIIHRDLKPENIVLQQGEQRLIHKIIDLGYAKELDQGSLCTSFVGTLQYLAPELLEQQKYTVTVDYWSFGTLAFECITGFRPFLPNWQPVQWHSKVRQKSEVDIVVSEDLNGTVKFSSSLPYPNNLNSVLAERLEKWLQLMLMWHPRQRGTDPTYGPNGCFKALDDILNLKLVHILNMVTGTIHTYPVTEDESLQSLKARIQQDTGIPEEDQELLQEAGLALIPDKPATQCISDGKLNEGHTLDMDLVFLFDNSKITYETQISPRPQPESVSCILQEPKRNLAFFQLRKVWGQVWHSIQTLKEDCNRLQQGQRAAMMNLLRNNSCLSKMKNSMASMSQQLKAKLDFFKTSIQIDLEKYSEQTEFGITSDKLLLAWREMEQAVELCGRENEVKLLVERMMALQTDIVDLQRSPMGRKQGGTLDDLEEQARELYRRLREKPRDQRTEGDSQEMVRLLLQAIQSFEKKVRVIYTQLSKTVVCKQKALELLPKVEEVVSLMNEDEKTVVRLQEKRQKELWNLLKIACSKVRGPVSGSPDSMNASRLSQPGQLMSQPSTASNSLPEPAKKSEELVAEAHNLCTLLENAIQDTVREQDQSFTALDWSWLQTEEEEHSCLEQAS
Description: as §1

WNK3(h) = WNK3(h) (Homo sapiens, UniProt Q9BYP7)
Description: as §1

CHK2(R145W)(h) = CHK2(R145W)(h) (Homo sapiens, UniProt O96017, R145W)
Description: as §1

CDK2/cyclinE(h) = CDK2/cyclinE(h) (Homo sapiens, UniProt P24941)
Description: as §1

eEF-2K(h) = biological target: T11, eEF-2K(h) (Homo sapiens, UniProt O00418)
T11 construct: purchased Millipore (KinaseProfiler service)
Description: as §1

## Cc1cc2c(F)c(Oc3nc(Nc4cc(C5CC5)[nH]n4)cc(N4CCN(C)CC4)n3)cc(F)c2[nH]1 [NTW-3475]
B1k(m)
  Activity %: 14%
F1t1(h)
  Activity %: 11%
CK1γ2(h)
  Activity %: 134%
MKK6(h)
  Activity %: 113%
GSK3α(h)
  Activity %: 96%
Met(Y1248D)(h)
  Activity %: 21%
PAK5(h)
  Activity %: 29%
CK2(h)
  Activity %: 85%
PhKγ2(h)
  Activity %: 77%
CHK2(II57T)(h)
  Activity %: 112%
MST3(h)
  Activity %: 9%
Yes(h)
  Activity %: 0%
CK1δ(h)
  Activity %: 91%
BRK(h)
  Activity %: 33%
TAO2(h)
  Activity %: 6%
TSSK2(h)
  Activity %: 84%
PKD2(h)
  Activity %: 94%
Lyn(m)
  Activity %: 1%
CDK1/cyclinB(h)
  Activity %: 81%
Hck(h) activated
  Activity %: 12%
PAR-1Bα(h)
  Activity %: 15%
FGFR3(h)
  Activity %: 0%
Met(D1246N)(h)
  Activity %: 20%
PKCβ1(h)
  Activity %: 92%
STK33(h)
  Activity %: 101%
TBK1(h)
  Activity %: 28%
NEK11(h)
  Activity %: 102%
Arg(m)
  Activity %: −2%
PDGFRβ(h)
  Activity %: 89%
GRK7(h)
  Activity %: 97%
P1k1(h)
  Activity %: 107%
EphB2(h)
  Activity %: 21%
MELK(h)
  Activity %: 40%
MAPKAP-K2(h)
  Activity %: 105%
ARK5(h)
  Activity %: 2%
IKKβ(h)
  Activity %: 109%
WNK3(h)
  Activity %: 86%
CHK2(R145W)(h)
  Activity %: 91%
CDK2/cyclinE(h)
  Activity %: 89%
eEF-2K(h)
  Activity %: 86%
